“Also recorded” adds a separate entry of the source.
How the values were obtained:
Format in all cases: cell-based
ZFP91 = target: T1, ZFP91 (Homo sapiens, UniProt Q96JP5+Q96SW2); experiment: Immunoblot of endogenous ZF protein ZFP91; conditions: for degradation potency for ZFP91 compared with pomalidomide (immunoblot): MM1.S cells; for off-target degradation of endogenous ZFP91 (immunoblot): dose-dependent
T1 construct: Immunoblots for endogenous ZF proteins ZFP91 and IKZF3 in MM1.S cells; endogenous in cells; host or cells: JURKAT, MM1.S, SU-DHL-1, H2228
Procedure: (§1) Western blot analysis. Lysates of cells treated with different compounds were collected with ice-cold M-PER™ Mammalian Protein Extraction Reagent (ThermoFisher Scientific, 78501) with freshly added phosphatase (Sigma-Aldrich, 04906837001) and protease (Sigma-Aldrich, 04693124001) inhibitors following the manufacturer's instructions. Next, 20-50 μg of proteins were fractionated with NuPAGE™ 4-12% Bis-Tris gels (ThermoFisher Scientific, NP0335BOX) then transferred onto nitrocellulose membranes using iBot™ Transfer Stacks (ThermoFisher Scientific, IB23002) following the manufacturer's instructions. Membranes were then stained with primary antibodies in 1:1000 dilutions and secondary fluorescent antibodies in 1:3000 dilutions using iBind™ Flex Fluorescent Detection Solution Kit (ThermoFisher Scientific, SLF2019) following the manufacturer's instructions.
(§2) Primary antibodies used in this study include ZFP91 (Bethyl Laboratories, A303-245A), IKZF3/Aiolos (D1C1E) (Cell Signaling, 15103S), CRBN (D8H3S) (Cell Signaling, 71810S), ALK(D5F3) XP (Cell Signaling, 3633S), phospho-ALK (Tyr1507) (D6F1V) (Cell Signaling, 14678S), β-actin (8H10D10) Mouse mAb (Cell Signaling, 3700S). Fluorescent secondary antibodies used in this study include IRDye 680RD goat anti-mouse IgG (LI-COR Biosciences, 926-68070) and IRDye 800CW goat anti-rabbit IgG (LI-COR Biosciences, 926-32211). Western blot detection was performed using an Odyssey CLx Imaging System (LI-COR Biosciences). Quantification of the relative area and density values of western blot bands were carried out using ImageJ v2.1.0 following the ImageJ User Guide for gel analysis (https://imagej.nih.gov/ij/docs/guide/). Quantified values were normalized by values for loading controls such as β-actin. For phospho NPM-ALK, quantified values were normalized by the values for total ALK.

IKZF3 = target: T2, IKZF3 (Homo sapiens, UniProt Q96SW2+Q9UKT9); experiment: Immunoblot of endogenous ZF protein IKZF3; conditions: for degradation potency for IKZF3 compared with pomalidomide (immunoblot): MM1.S cells; for off-target degradation of endogenous IKZF3 (immunoblot): JURKAT cells, dose-dependent
T2 construct: Immunoblots for endogenous ZF proteins ZFP91 and IKZF3 in MM1.S cells; endogenous in cells; host or cells: JURKAT, MM1.S
Procedure: as §1, §2

MOLT4 and KELLY cells = experiment: Global proteomic studies (TMT) of IMiDs in ZF protein-relevant cell lines; conditions: 1 μM
Procedure: Global proteomic studies. To validate the results from the imagining-based experiments, Applicant performed proteomics studies in two ZF protein-relevant cell lines (MOLT4 and KELLY).^26 Briefly, Applicant treated the ZF protein-relevant cells (MOLT4 and KELLY) with IMiDs or PROTACs at 1 μM concentrations, and the protein lysates were prepared from the cells were digested, and labeled using a TMT-based quantification kit. Labeled samples were subjected to LC/MS on an Orbitrap Eclipse Tribrid mass spectrometer. Applicant used the Proteome Discoverer software pipeline and identified the final hits by searching against the uniport database.

[1] = test system: ZF degrons fused to eGFP in U2OS cells; experiment: Automated high-content imaging assay of ZF degron-tagged eGFP degradation (off-target profiling); conditions: U2OS ZF degron reporter cells, 24 hours, doses 4.3 nM to 20 μM
Excerpt: Development and validation of an off-target profiling platform for PROTACs. To profile the ZF degradation propensity of pomalidomide and its analogs, an automated high-content imaging assay was first developed (FIG. 1A). For this platform, 23-amino acid ZF degrons of 12 ZF proteins were selected that are reportedly degraded by pomalidomide and two ZFs that are not.^2 These ZF degrons were inserted into a lentiviral degradation reporter vector (cilantro 2) to compare the fluorescence of ZF-tagged enhanced green fluorescent protein (eGFP) to untagged mCherry with high-content imaging (FIG. 1A). With this assay, wherein compounds are scanned against the 14 stable cell lines containing our tagged ZF-proteins, dose-dependent degradation of ZF degron-tagged eGFP by pomalidomide was reliably detected with a robust readout (Z-prime value of 0.8) (FIG. 5). […] Unlike mass spectrometry, this reporter-based method is not limited by cell-type-specific expression levels of analyte proteins nor by the accessibility to ZFs in the context of full-length proteins that are engaged in protein complexes. […]
The fluorescence intensity of eGFP was normalized to that of mCherry for every cell. […] The degradation score was then calculated by taking the sum of the GFP degradation fractions across all doses for each compound. […]

SU-DH-L1 cells = experiment: Cell viability assay (CellTiter-Glo); conditions: for IC50: SU-DHL-1, SU-DH-L1 cells, 24 hours
Procedure: Cell Viability Assay. SU-DH-L1 cells were seeded in 30 μl of 8000 cells per well in 384-well plates pre-printed with 10 mM of the stock compounds in varying volumes using a Tecan D300e Digital Dispenser (Tecan). After 24 hours, cell viability was determined using a CellTiter-Glo Luminescent Cell Viability Assay (Promega, G7571) following the manufacturer's instructions. Dose-response curve fitting and IC50 quantification were determined with four parameter nonlinear regression analysis using GraphPad Prism v8.4.2.

[2] = listed as Thalidomide analog with amino group on C5 position

T1 sequence (Q96JP5 2-570 limits assumed): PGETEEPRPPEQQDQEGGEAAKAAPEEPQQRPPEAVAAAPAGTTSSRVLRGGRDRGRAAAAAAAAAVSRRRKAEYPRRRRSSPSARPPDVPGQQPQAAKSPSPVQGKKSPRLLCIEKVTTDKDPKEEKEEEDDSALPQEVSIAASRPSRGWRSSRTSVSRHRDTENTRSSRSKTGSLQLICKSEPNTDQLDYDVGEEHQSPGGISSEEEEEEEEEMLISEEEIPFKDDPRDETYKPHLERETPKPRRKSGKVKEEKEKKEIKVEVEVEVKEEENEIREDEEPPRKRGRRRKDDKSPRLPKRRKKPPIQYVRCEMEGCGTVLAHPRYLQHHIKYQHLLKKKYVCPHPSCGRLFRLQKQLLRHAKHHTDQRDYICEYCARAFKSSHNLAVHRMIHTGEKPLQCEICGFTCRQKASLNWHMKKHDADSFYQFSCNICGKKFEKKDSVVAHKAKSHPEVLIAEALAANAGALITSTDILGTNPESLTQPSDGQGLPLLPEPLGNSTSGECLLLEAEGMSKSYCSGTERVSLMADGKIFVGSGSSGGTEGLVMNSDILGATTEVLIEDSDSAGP
T1 sequence (Q96SW2 whole entry): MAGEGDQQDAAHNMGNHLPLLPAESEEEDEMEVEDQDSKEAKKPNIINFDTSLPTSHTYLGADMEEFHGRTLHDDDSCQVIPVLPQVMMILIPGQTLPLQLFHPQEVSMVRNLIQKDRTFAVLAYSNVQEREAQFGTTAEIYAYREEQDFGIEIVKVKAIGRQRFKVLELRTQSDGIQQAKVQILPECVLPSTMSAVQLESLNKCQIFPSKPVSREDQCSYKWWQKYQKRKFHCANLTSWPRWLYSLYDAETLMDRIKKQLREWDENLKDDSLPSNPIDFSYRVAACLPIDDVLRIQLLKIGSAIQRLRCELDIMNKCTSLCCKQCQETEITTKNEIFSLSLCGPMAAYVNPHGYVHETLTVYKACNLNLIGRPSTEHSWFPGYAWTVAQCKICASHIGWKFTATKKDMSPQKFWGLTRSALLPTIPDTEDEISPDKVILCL
T1 sequence (Q16531 2-1140 partner limits assumed): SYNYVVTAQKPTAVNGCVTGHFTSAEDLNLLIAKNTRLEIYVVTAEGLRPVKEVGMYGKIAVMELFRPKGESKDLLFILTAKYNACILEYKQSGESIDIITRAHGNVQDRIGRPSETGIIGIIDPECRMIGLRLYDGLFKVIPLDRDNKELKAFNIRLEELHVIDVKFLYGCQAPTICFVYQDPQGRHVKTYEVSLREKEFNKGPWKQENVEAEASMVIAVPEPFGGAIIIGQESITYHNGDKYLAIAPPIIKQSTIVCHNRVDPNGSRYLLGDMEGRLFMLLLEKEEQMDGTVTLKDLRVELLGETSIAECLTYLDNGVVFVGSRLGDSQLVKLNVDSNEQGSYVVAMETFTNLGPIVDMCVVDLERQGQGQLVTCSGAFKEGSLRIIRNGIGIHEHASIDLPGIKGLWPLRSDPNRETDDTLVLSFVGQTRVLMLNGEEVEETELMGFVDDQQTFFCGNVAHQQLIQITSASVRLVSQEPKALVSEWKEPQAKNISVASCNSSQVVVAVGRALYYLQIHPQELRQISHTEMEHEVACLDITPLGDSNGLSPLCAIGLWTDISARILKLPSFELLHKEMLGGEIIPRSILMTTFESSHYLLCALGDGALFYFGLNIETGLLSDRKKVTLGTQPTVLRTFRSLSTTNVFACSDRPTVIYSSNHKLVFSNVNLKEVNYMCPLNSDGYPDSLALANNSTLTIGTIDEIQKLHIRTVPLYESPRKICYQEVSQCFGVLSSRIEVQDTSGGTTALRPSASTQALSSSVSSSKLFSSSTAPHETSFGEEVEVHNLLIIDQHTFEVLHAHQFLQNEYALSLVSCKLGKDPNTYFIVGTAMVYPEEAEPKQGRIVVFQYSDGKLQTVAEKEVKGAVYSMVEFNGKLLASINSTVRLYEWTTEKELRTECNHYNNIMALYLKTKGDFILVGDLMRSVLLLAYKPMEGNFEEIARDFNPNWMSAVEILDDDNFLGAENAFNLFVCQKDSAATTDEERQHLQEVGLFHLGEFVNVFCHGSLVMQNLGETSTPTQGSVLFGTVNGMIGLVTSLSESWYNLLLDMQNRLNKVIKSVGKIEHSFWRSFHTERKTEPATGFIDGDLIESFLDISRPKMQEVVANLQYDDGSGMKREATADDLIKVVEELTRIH
T2 sequence (Q9UKT9 whole entry): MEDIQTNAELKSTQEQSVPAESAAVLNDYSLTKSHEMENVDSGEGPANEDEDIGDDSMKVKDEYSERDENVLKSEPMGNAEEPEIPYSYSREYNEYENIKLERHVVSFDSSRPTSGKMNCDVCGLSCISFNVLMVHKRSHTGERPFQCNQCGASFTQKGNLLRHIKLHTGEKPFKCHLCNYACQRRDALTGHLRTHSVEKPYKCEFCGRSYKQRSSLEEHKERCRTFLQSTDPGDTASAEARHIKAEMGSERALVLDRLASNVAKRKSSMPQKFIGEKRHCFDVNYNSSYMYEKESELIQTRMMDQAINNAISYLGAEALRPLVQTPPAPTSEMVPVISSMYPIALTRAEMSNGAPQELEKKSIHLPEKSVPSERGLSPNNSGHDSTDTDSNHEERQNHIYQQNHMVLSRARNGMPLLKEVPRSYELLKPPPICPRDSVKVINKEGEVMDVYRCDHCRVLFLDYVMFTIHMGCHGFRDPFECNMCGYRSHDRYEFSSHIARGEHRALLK
T2 sequence (Q96SW2 whole entry): as the sequence (Q96SW2 whole entry) above
T2 sequence (Q16531 2-1140 partner limits assumed): as the sequence (Q16531 2-1140 partner limits assumed) above

Nc1ccc2c(c1)C(=O)N(C1CCC(=O)NC1=O)C2=O (stereo not shown) [5-aminothalidomide]
degradation potency for ZFP91 compared with pomalidomide (immunoblot) (ZFP91): decrease in overall degradation potency
degradation potency for ZFP91 compared with pomalidomide (immunoblot) (ZFP91; [2]): decrease in the potency
degradation potency for IKZF3 compared with pomalidomide (immunoblot) (IKZF3): decrease in overall degradation potency
degradation potency for IKZF3 compared with pomalidomide (immunoblot) (IKZF3; [2]): decrease in the potency

Nc1cccc2c1C(=O)N(C1CCC(=O)NC1=O)C2=O (stereo not shown) [Pomalidomide]
off-target profile in global proteomics (MOLT4 and KELLY cells): exhibited the commonly reported off-targets
off-target degradation of ZF degron-tagged eGFP [1]: degraded all 12 ZF degrons

Cc1cc(Nc2ncc(Cl)c(Nc3ccccc3S(=O)(=O)C(C)C)n2)c(OC(C)C)cc1C1CCN(CC(=O)NCCNc2cccc3c2C(=O)N(C2CCC(=O)NC2=O)C3=O)CC1 (stereo not shown) [MS4078]
off-target degradation of endogenous ZFP91 (immunoblot) (ZFP91; JURKAT cells): off-target degradation
off-target degradation of endogenous ZFP91 (immunoblot) (ZFP91; SU-DHL-1 and H2228 cell lines): off-target degradation
IC50 (SU-DH-L1 cells; Homo sapiens, Example 1): 195 nM
EC50 (SU-DH-L1 cells; Homo sapiens, SU-DHL-1 cells, Example 3 numbering): 195 nM
fold lowering of potency relative to ceritinib (SU-DH-L1 cells; IC50 ratio, Example 1): 2.8 fold
off-target degradation of endogenous IKZF3 (immunoblot) (IKZF3): off-target degradation
off-target degradation of ZF degron-tagged eGFP [1]: high level of off-target ZF degradation; also recorded: ZNF517, ZNF654, ZNF276, ZNF653, and PATZ1

Cc1cc(Nc2ncc(Cl)c(Nc3ccccc3S(=O)(=O)C(C)C)n2)c(OC(C)C)cc1C1CCNCC1 [ceritinib]
IC50 (SU-DH-L1 cells; Homo sapiens, Example 1): 69.3 nM

CC[C@H](C(=O)N1CCCC[C@H]1C(=O)O[C@H](CCc1ccc(OC)c(OC)c1)c1ccccc1OCC(=O)NCCCCCCOc1cccc2c1C(=O)N(C1CCC(=O)NC1=O)C2=O)c1cc(OC)c(OC)c(OC)c1 (stereo partly shown) [dTAG-13]
off-target degradation of endogenous ZFP91 (immunoblot) (ZFP91; JURKAT cells): off-target degradation
off-target degradation of endogenous IKZF3 (immunoblot) (IKZF3): off-target degradation

Source: patent publication US20250066325A1, “DIRECTED DEGRON MOLECULES AND APPLICATIONS THEREOF” (The Brigham and Women's Hospital, Inc., priority 2021, published 2025)
